As a reminder, the IC50 is the midpoint of a concentration-inhibition curve. Higher therefore signals a need for much substance.

Data on five compounds can be found in ChEMBL document CHEMBL1139223, “Isofagomine- and 2,5-anhydro-2,5-imino-D-glucitol-based glucocerebrosidase pharmacological chaperones for Gaucher disease intervention” (J Med Chem, 2007).

The subject of test [1] is L444P. As to the kind of experiment: Increase in non-lysosomal activity of glucocerebrosidase […] mutant in human L444P cells at 20 uM relative to Conduritol B epoxide. Format: cell-based.
The target in test [2] is T1, Lysosomal acid glucosylceramidase (Homo sapiens, UniProt P04062).
T1 sequence (P04062 whole entry): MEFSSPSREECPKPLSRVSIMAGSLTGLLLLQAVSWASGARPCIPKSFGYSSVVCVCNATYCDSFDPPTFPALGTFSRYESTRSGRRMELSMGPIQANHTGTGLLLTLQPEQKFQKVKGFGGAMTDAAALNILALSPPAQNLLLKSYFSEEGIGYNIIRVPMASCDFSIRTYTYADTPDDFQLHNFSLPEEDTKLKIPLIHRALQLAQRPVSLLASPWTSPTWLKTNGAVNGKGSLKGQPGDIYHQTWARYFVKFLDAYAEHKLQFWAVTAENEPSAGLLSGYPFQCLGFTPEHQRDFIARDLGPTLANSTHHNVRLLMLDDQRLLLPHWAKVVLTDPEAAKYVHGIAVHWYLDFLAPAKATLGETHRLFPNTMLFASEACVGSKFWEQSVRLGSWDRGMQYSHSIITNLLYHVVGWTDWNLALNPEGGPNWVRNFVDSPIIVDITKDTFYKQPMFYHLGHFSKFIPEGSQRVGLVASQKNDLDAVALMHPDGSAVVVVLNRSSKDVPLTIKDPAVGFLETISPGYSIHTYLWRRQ
Briefly: Inhibition of glucocerebrosidase.

In test [3] the target is T2, Lysosomal acid glucosylceramidase (Homo sapiens) (UniProt P04062).
T2 sequence (whole entry): T1 sequence (P04062 whole entry)
As to the kind of experiment: Increase in non-lysosomal activity of glucocerebrosidase N370S mutant in human L444P cells at 30 uM relative to Conduritol B epoxide. Format: cell-based.

Test [4] relates to L444P. As to the kind of experiment: Increase in non-lysosomal activity of glucocerebrosidase […] mutant in human L444P cells at 150 uM relative to Conduritol B epoxide. The class given is cell-based.
In test [5] the target is T2, Lysosomal acid glucosylceramidase (Homo sapiens). Briefly: Increase in non-lysosomal activity of glucocerebrosidase N370S mutant in human L444P cells at 75 uM relative to Conduritol B epoxide. Format: cell-based.
The target is the same in test [6]. As to the kind of experiment: Increase in non-lysosomal activity of glucocerebrosidase N370S mutant in human L444P cells at 20 uM relative to Conduritol B epoxide. Format: cell-based.
Test [7] deals with L444P. Briefly: Increase in non-lysosomal activity of glucocerebrosidase […] mutant in human L444P cells at 50 uM relative to Conduritol B epoxide. The class given is cell-based.
Test [8] deals with T2, Lysosomal acid glucosylceramidase (Homo sapiens). Briefly: Increase in non-lysosomal activity of glucocerebrosidase N370S mutant in human L444P cells at 50 uM relative to Conduritol B epoxide. The class given is cell-based.

Turning to `O=C(CCCN1[C@H](CO)[C@@H](O)[C@H](O)[C@@H]1CO)NC12CC3CC(CC(C3)C1)C2`, the Activity was found to be 1.6 in the test on L444P [1] and 2.2 in test [3]. The same compound had an IC50 in test [2] of 507 µM.
On to `O=C(CCCCCN1C[C@H](CO)[C@@H](O)[C@H](O)C1)NC12CC3CC(CC(C3)C1)C2`, for which the Activity with L444P [4] was determined as 5.1; in test [5], 2.3. In addition, the midpoint of inhibition in test [2], the IC50, lay at 94 µM.
The like results for `O=C(CCCN1C[C@H](CO)[C@@H](O)[C@H](O)C1)NC12CC3CC(CC(C3)C1)C2` were, in that order, 7, 2.5 and 18 µM.
Turning to `O=C(CCCCN1[C@H](CO)[C@@H](O)[C@H](O)[C@@H]1CO)NC12CC3CC(CC(C3)C1)C2`, the Activity amounted to 1.4 in test [6] and 2.2 in the test with L444P [7]. The half-inhibitory concentration (IC50) in test [2] is 393 µM.
With `O=C(CCCCN1C[C@H](CO)[C@@H](O)[C@H](O)C1)NC12CC3CC(CC(C3)C1)C2`, the Activity with L444P [4] is 7.2; in test [8], 1.9. In test [2], this compound came in with a 50% inhibitory concentration (IC50) of 11 µM.
